For data set [1], the system named is L1210 cell line. Nature of the data set: cytotoxic activity in the L1210 assays. The conditions noted are these: L1210 assays.
Data set [2] in a line: solubility in aqueous buffer. The class given is physicochemical.
Data set [3] is described as follows: cytotoxic activity in the L1210 assays.
Data set [4] deals with HIV-1 reverse transcriptase (Human immunodeficiency virus type 1 group M subtype B, UniProt P03366). Nature of the data set: inhibition of HIV-1 reverse transcriptase. Type of data set: biochemical.
The subject of data set [5] is supercoiled ΦX174 DNA. Nature of the data set: unwinding and rewinding of negatively supercoiled DNA, agarose gel electrophoresis. Type of data set: biochemical. An excerpt: Confirmation that thiocoraline and BE-22179 bind to DNA with bisintercalation was derived from their ability to induce the unwinding of negatively supercoiled DNA. This was established by their ability to gradually decrease the agarose gel electrophoresis mobility of supercoiled ΦX174 DNA (unwinding) at increasing concentrations followed by a return to normal mobility (rewinding) at even higher concentrations. Under the conditions employed, echinomycin unwound ΦX174 DNA at a 0.044 agent/base pair ratio (FIG. 11 and FIG. 12). Thiocoraline completely unwound ΦX174 DNA at a higher 0.11 agent/base pair ratio, whereas BE-22179 required even higher concentrations producing the unwinding at an agent/base pair ratio of 1.1. […] Thus, the distinctions in 1 and 2 and echinomycin detected here appear to be related to the nature of the cyclic depsipeptide and not the structure of the chromophore.
FIG. 8 is a table of comparative DNA binding properties. ^aCalf thymus DNA, KB=apparent binding constant determined by fluorescence quenching. The value in paren-theses is the agent/base pair ratio at saturated high-affinity binding and may be considered a measure of the selectivity of binding. ^bAgent/base pair ratio required to unwind negatively supercoiled FX174 DNA (form I to form II gel mobility, 0.9% agarose gel). ^cAgent/base pair ratio required to induce complete rewinding or positive super-coiling of FX174 DNA (form II to form I gel mobility, 0.9% agarose gel). ^dBinding constant established by footprinting at a 5′-CCGC site (FIG. 9).
(A) Lane 1, untreated supercoiled FX174 DNA, 95% form 1 and 5% form II; lanes 2-8, thiocoraline-treated FX174 DNA; lanes 9-14, echinomycin-treated FX174 DNA. The [agent]-to-[base pair] ratios were 0.022 (lanes 2 and 9), 0.033 (lanes 3 and 10), 0.044 (lanes 4 and 11), 0.066 (lanes 5 and 12), 0.11 (lanes 6 and 13), 0.22 (lanes 7 and 14), and 0.44 (lane 8). (B) Lane 1, untreated supercoiled FX174 DNA, lanes 2-12, BE-22179-treated FX174 DNA. The [agent]-to-[base pair] ratios were 0.022, (lane 2), 0.033 (lane 3), 0.044 (lane 4), 0.066 (lane 5), 0.11 (lane 6), 0.22 (lane 7), and 0.33 (lane 8), 0.44 (lane 9), 0.66 (lane 10), 1.1 (lane 11), and 2.2 (lane 12). (C) Lane 1, untreated supercoiled FX174 DNA, 95% form 1 and 5% form II; lanes 2-8, thiocoraline analogue (27)-treated FX174 DNA. The [agent]-to-[base pair] ratios were 0.022 (lane 2), 0.033 (lane 3), 0.044 (lane 4), 0.066 (lane 5), 0.11 (lane 6), 0.22 (lane 7), and 0.44 (lane 8).

In brackets after ≈: the same amount, converted by molar mass. Bridge positions count the residues as written; N and C are the ends. Square brackets hold non-standard residues; d marks the D form. Peptide text beside a SMILES is read from it. I, II: the chains in the order shown. * marks the point of attachment. Quinaldoyl(3-OH,6-OMe) = COc1ccc2nc(C(=O)*)c(O)cc2c1; Quinoxaline2carbonyl = O=C(c1cnc2ccccc2n1)*; Quinaldoyl(3-OH) = O=C(c1nc2ccccc2cc1O)*; Fmoc = O=C(OCC1c2ccccc2-c2ccccc21)*; Quinaldoyl = O=C(c1ccc2ccccc2n1)*; NMeC = CN[C@@H](CS)C(=O)O; Cbz = O=C(OCc1ccccc1)*; NMeDha = C=C(NC)C(=O)O

The term IC50 denotes the concentration needed to halve the response being measured. Lower therefore signals greater potency in that assay.

As to `COc1ccc2nc(C(=O)N[C@@H]3CSC(=O)[C@H](CSC)N(C)C(=O)[C@@H]4CSSC[C@@H](C(=O)N(C)[C@@H](CSC)C(=O)SC[C@@H](NC(=O)c5nc6ccc(OC)cc6cc5O)C(=O)NCC(=O)N4C)N(C)C(=O)CNC3=O)c(O)cc2c1` [Compound 28, [N-(3-Hydroxy-6-methoxy-2-quinoline carboxyl)-D-Cys-Gly-NMe-L--CyS-NMe-L--Cys(Me)]2 (Cysteine Thiol) Dilactone] (I: {Quinaldoyl(3-OH,6-OMe)}-[dC]G[NMeC][NMeC](Me) / II: {Quinaldoyl(3-OH,6-OMe)}-[dC]G[NMeC][NMeC](Me); thioester I:1-II:C, I:C-II:1; disulfide I:3-II:3), the “cytotoxic activity (in words)” value in data set [1] is “potent activity”.

As for `C=C1C(=O)SC[C@@H](NC(=O)c2nc3ccccc3cc2O)C(=O)NCC(=O)N(C)[C@H]2CSSC[C@@H](C(=O)N1C)N(C)C(=O)CNC(=O)[C@H](NC(=O)c1nc3ccccc3cc1O)CSC(=O)C(=C)N(C)C2=O` [BE-22179] (I: {Quinaldoyl(3-OH)}-[dC]G[NMeC][NMeDha] / II: {Quinaldoyl(3-OH)}-[dC]G[NMeC][NMeDha]; thioester I:1-II:C, I:C-II:1; disulfide I:3-II:3), the solubility in data set [2] (Tris-HCl pH 7.4, 75 mM NaCl, read-out: agent concentrations where the compounds are soluble) lay in the range of 1 to 10 µM (≈ 1.06 to 10.6 µg/mL). The IC50 in data set [3] came to 0.4 nM.

Regarding `CSC[C@H]1C(=O)SC[C@@H](NC(=O)OCC2c3ccccc3-c3ccccc32)C(=O)NCC(=O)N(C)[C@H]2CSSC[C@@H](C(=O)N1C)N(C)C(=O)CNC(=O)[C@H](NC(=O)OCC1c3ccccc3-c3ccccc31)CSC(=O)[C@H](CSC)N(C)C2=O` [Compound 32] (I: Fmoc-[dC]G[NMeC][NMeC](Me) / II: Fmoc-[dC]G[NMeC][NMeC](Me); thioester I:1-II:C, I:C-II:1; disulfide I:3-II:3), the “cytotoxic activity (in words)” value in data set [1] was “inactive”.

As for `CSC[C@H]1C(=O)SC[C@@H](NC(=O)OCc2ccccc2)C(=O)NCC(=O)N(C)[C@H]2CSSC[C@@H](C(=O)N1C)N(C)C(=O)CNC(=O)[C@H](NC(=O)OCc1ccccc1)CSC(=O)[C@H](CSC)N(C)C2=O` [Compound 23, [N-Cbz-D-Cys-Gly-NMe-L--Cys-NMe-L--Cys(Me)]2 (Cysteine Thiol) Dilactone] (I: Cbz-[dC]G[NMeC][NMeC](Me) / II: Cbz-[dC]G[NMeC][NMeC](Me); thioester I:1-II:C, I:C-II:1; disulfide I:3-II:3), the “cytotoxic activity (in words)” value in data set [1] was “inactive”.

As for `CSC[C@H]1C(=O)SC[C@@H](NC(=O)c2cnc3ccccc3n2)C(=O)NCC(=O)N(C)[C@H]2CSSC[C@@H](C(=O)N1C)N(C)C(=O)CNC(=O)[C@H](NC(=O)c1cnc3ccccc3n1)CSC(=O)[C@H](CSC)N(C)C2=O` [Compound 27, [N-(2-Quinoxaline carboxyl)-D-Cys-Gly-NMe-L--Cys-NMe-L--CYS(Me)]2 (Cysteine Thiol) Dilactone] (I: Quinoxaline2carbonyl-[dC]G[NMeC][NMeC](Me) / II: Quinoxaline2carbonyl-[dC]G[NMeC][NMeC](Me); thioester I:1-II:C, I:C-II:1; disulfide I:3-II:3), the “cytotoxic activity (in words)” value in data set [1] is “less potent cytotoxic activity”.

Take `CS[C@H]1SC[C@H]2C(=O)N(C)[C@@H](C(C)C)C(=O)OC[C@@H](NC(=O)c3cnc4ccccc4n3)C(=O)N[C@@H](C)C(=O)N(C)[C@@H]1C(=O)N(C)[C@@H](C(C)C)C(=O)OC[C@@H](NC(=O)c1cnc3ccccc3n1)C(=O)N[C@@H](C)C(=O)N2C` [echinomycin, reference compound]: the “solubility (in words)” value in data set [2] was “low solubility”. Also, the “inhibition of HIV-1 reverse transcriptase (in words)” value in data set [4] is reported as “weak inhibitor”. Also, the “agent/base pair ratio required to unwind supercoiled DNA” value in data set [5] (form I to form II gel mobility) was 0.044 agent/base pair ratio. Further, the “agent/base pair ratio for complete rewinding of supercoiled DNA” value in data set [5] (form II to form I gel mobility) was determined as 0.22 agent/base pair ratio.

For the molecule `CSC[C@H]1C(=O)SC[C@@H](NC(=O)c2ccc3ccccc3n2)C(=O)NCC(=O)N(C)[C@H]2CSSC[C@@H](C(=O)N1C)N(C)C(=O)CNC(=O)[C@H](NC(=O)c1ccc3ccccc3n1)CSC(=O)[C@H](CSC)N(C)C2=O` [Compound 26, [N-(2-Quinoline Carboxyl)-D-Cys-Gly-NMe-L--Cys-NMe-L--Cys(Me)]2 (Cysteine Thiol) Dilactone] (I: Quinaldoyl-[dC]G[NMeC][NMeC](Me) / II: Quinaldoyl-[dC]G[NMeC][NMeC](Me); thioester I:1-II:C, I:C-II:1; disulfide I:3-II:3), in data set [1], the “cytotoxic activity (in words)” value was “less potent cytotoxic activity”.

These data come from patent US20040072738A1, “Analogues of thiocoraline and be-22179” (priority 2000, published 2004).
